Data on five compounds can be found in ChEMBL document CHEMBL5046263, “Characterization of the Aminosugar Biosynthetic and Regulatory Genes of Vicenistatin in Monodonata labio-Associated Streptomyces parvus SCSIO Mla-L010” (J Nat Prod, 2022).

≈ marks a conversion by molar mass, not a printed value.

Data set [1] concerns Staphylococcus aureus. As to the kind of experiment: Antibacterial activity against methicillin-resistant Staphylococcus aureus 16339 assessed as bacterial growth inhibition. It is filed as functional.
For data set [2], the system named is Staphylococcus aureus. As to the kind of experiment: Antibacterial activity against Staphylococcus aureus ATCC 29213 assessed as bacterial growth inhibition. Format: functional.
In data set [3] the test system is Staphylococcus aureus. As to the kind of experiment: Antibacterial activity against methicillin-resistant Staphylococcus aureus 16162 assessed as bacterial growth inhibition. Format: functional.
Another data set relates to HL-60. The experiment in a line: Cytotoxicity against human HL-60 cells assessed as reduction in cell viability after 72 hrs by MTT assay. Format: functional, cell-based. To be noted: HL-60, 72 h. In general terms: Formazan colour is commonly taken as a measure of viable cells.
The test system of a further data set is A549. The experiment in a line: Cytotoxicity against human A549 cells assessed as reduction in cell viability by after 72 hrs MTT assay. Format: functional, cell-based. The note with it: A549, 72 h.
The subject of another data set is HeLa. As to the kind of experiment: Cytotoxicity against human HeLa cells assessed as reduction in cell viability after 72 hrs by MTT assay. Format: functional, cell-based.
The next data set deals with Cryptococcus neoformans. The experiment in a line: Antifungal activity against Cryptococcus neoformans ATCC4906 assessed as fungal growth inhibition. It is filed as functional.
The test system of data set [4] is Staphylococcus aureus. The experiment in a line: Antibacterial activity against methicillin-resistant Staphylococcus aureus 6917 assessed as bacterial growth inhibition. It is filed as functional.
Data set [5] deals with Staphylococcus aureus. The experiment in a line: Antibacterial activity against methicillin-resistant Staphylococcus aureus 718306 assessed as bacterial growth inhibition. Format: functional.
The test system of data set [6] is Candida albicans. The experiment in a line: Antifungal activity against Candida albicans C5 assessed as fungal growth inhibition. It is filed as functional.
The nature of data set [7]: Cytotoxicity against human L02 cells assessed as reduction in cell viability after 72 hrs by MTT assay. It is filed as toxicity, cell-based.
In a further data set the test system is Micrococcus luteus. As to the kind of experiment: Antibacterial activity against Micrococcus luteus ML01 assessed as bacterial growth inhibition. Format: functional.
For data set [8], the system named is Staphylococcus aureus. The experiment in a line: Antibacterial activity against methicillin-resistant Staphylococcus aureus 745524 assessed as bacterial growth inhibition. Format: functional.
A further data set concerns MCF7. As to the kind of experiment: Cytotoxicity against human MCF7 cells assessed as reduction in cell viability after 72 hrs by MTT assay. The note with it: MCF7, 72 h. It is filed as functional, cell-based.
Data set [9] is described as follows: Cytotoxicity against human BEAS-2B cells assessed as reduction in cell viability after 72 hrs by MTT assay. Format: toxicity, cell-based.
The test system of the next data set is RKO. As to the kind of experiment: Cytotoxicity against human RKO cells assessed as reduction in cell viability after 72 hrs by MTT assay. It is filed as functional, cell-based.
Data set [10] has as its system Candida albicans. As to the kind of experiment: Antifungal activity against Candida albicans ATCC SC5314 assessed as fungal growth inhibition. It is filed as functional.
The subject of data set [11] is Helicobacter pylori. The experiment in a line: Antibacterial activity against Helicobacter pylori G27 assessed as bacterial growth inhibition. It is filed as functional.
Data set [12] concerns Mycolicibacterium smegmatis. The experiment in a line: Antibacterial activity against Mycobacterium smegmatis ATCC607 assessed as bacterial growth inhibition. It is filed as functional.
A further data set has as its system Bacillus subtilis. As to the kind of experiment: Antibacterial activity against Bacillus subtilis BS01 assessed as bacterial growth inhibition. It is filed as functional.
Data set [13] concerns Helicobacter pylori. As to the kind of experiment: Antibacterial activity against Helicobacter pylori 159 assessed as bacterial growth inhibition. It is filed as functional.
Data set [14] concerns Staphylococcus aureus. As to the kind of experiment: Antibacterial activity against methicillin-resistant Staphylococcus aureus shhs-E1 assessed as bacterial growth inhibition. Format: functional.
The next data set concerns HepG2. The experiment in a line: Cytotoxicity against human HepG2 cells assessed as reduction in cell viability after 72 hrs by MTT assay. To be noted: HepG2, 72 h. It is filed as functional, cell-based.

For `CN[C@H]1[C@@H](O)C[C@H](O[C@H]2C/C=C(\C)C/C(C)=C/C=C/CC[C@H](C)CNC(=O)/C=C/C=C/[C@@H]2C)O[C@@H]1C` [VICENISTATIN], the MIC worked out at 0.06 µg/mL (≈ 0.12 µM) with Staphylococcus aureus [1]; 0.06 µg/mL (≈ 0.12 µM) in the data set with Staphylococcus aureus [2]; 0.13 µg/mL (≈ 0.26 µM) in the data set on Staphylococcus aureus [3]; 2 µg/mL (≈ 3.99 µM) in the data set on Cryptococcus neoformans; 0.06 µg/mL (≈ 0.12 µM) in the data set with Staphylococcus aureus [4]; 0.13 µg/mL (≈ 0.26 µM) with Staphylococcus aureus [5]. Moreover, the MIC is 4 µg/mL (≈ 7.99 µM) in the data set with Candida albicans [6]; 0.06 µg/mL (≈ 0.12 µM) in the data set with Micrococcus luteus; 0.06 µg/mL (≈ 0.12 µM) in the data set on Staphylococcus aureus [8]; 4 µg/mL (≈ 7.99 µM) in the data set with Candida albicans [10]; 1 µg/mL (≈ 2 µM) in the data set with Helicobacter pylori [11]; greater than 64 µg/mL in data set [12]. The values for the minimum inhibitory concentration (MIC) in the data set on Bacillus subtilis, with Helicobacter pylori [13] and with Staphylococcus aureus [14] were 0.13 µg/mL (≈ 0.26 µM), 1 µg/mL (≈ 2 µM) and 0.13 µg/mL (≈ 0.26 µM), respectively. For the same compound, the IC50 in the data set with HL-60 stood at 640 nM; with A549, 760 nM; in the data set with HeLa, 1380 nM; in the data set with MCF7 it was 800 nM; with RKO, 2330 nM; in the data set with HepG2, 2010 nM. For the same compound, the IC50 at 72 h in data set [7] came out at 890 nM; in data set [9] it was 1400 nM.
In the case of `CC1(C)S[C@@H]2[C@H](NC(=O)[C@H](N)c3ccccc3)C(=O)N2[C@H]1C(=O)O` [AMPICILLIN], the MIC was found to be 4 µg/mL (≈ 11.4 µM) with Helicobacter pylori [11], 64 µg/mL (≈ 183 µM) in [12] and 4 µg/mL (≈ 11.4 µM) with Helicobacter pylori [13].
For `C/C1=C\C=C\CC[C@H](C)CNC(=O)/C=C/C=C/[C@H](C)[C@@H](O[C@H]2C[C@H](O)[C@H](N)[C@@H](C)O2)C/C=C(\C)C1`, the MIC is 0.5 µg/mL (≈ 1.03 µM) in the data set with Staphylococcus aureus [1]; 0.13 µg/mL (≈ 0.267 µM) with Staphylococcus aureus [2]; 0.25 µg/mL (≈ 0.514 µM) in the data set with Staphylococcus aureus [3]; 2 µg/mL (≈ 4.11 µM) in the data set on Cryptococcus neoformans; 0.13 µg/mL (≈ 0.267 µM) in the data set with Staphylococcus aureus [4]; 0.25 µg/mL (≈ 0.514 µM) in the data set on Staphylococcus aureus [5]. In addition, the MIC worked out at 2 µg/mL (≈ 4.11 µM) with Candida albicans [6]; 0.25 µg/mL (≈ 0.514 µM) with Micrococcus luteus; 0.25 µg/mL (≈ 0.514 µM) in the data set on Staphylococcus aureus [8]; 1 µg/mL (≈ 2.05 µM) in the data set with Candida albicans [10]; 1 µg/mL (≈ 2.05 µM) in the data set on Helicobacter pylori [11]; 4 µg/mL (≈ 8.22 µM) in [12]. Also, the MIC in the data set with Bacillus subtilis came out at 0.5 µg/mL (≈ 1.03 µM); in the data set with Helicobacter pylori [13], 1 µg/mL (≈ 2.05 µM); in the data set with Staphylococcus aureus [14], 0.25 µg/mL (≈ 0.514 µM). Also, the IC50 with HL-60 amounted to 890 nM; in the data set with A549, 1330 nM; with HeLa it was 1290 nM; in the data set with MCF7, 1160 nM; in the data set on RKO it was 2100 nM; in the data set with HepG2, 2090 nM. For the same compound, the IC50 at 72 h in [7] was determined as 5360 nM; in data set [9], 3230 nM.
Regarding `C[C@@H]1[C@H](O)[C@@H](C)/C=C/C=C/C=C/C=C/C=C/C=C/C=C/[C@H](O[C@@H]2O[C@H](C)[C@@H](O)[C@H](N)[C@@H]2O)C[C@@H]2O[C@](O)(C[C@@H](O)C[C@@H](O)[C@H](O)CC[C@@H](O)C[C@@H](O)CC(=O)O[C@H]1C)C[C@H](O)[C@H]2C(=O)O` [AMPHOTERICIN B], the MIC with Cryptococcus neoformans was determined as 2 µg/mL (≈ 2.16 µM); in the data set on Candida albicans [6], 1 µg/mL (≈ 1.08 µM); in the data set with Candida albicans [10] it was 1 µg/mL (≈ 1.08 µM).
With `CN[C@H](CC(C)C)C(=O)N[C@H]1C(=O)N[C@@H](CC(N)=O)C(=O)N[C@H]2C(=O)N[C@H]3C(=O)N[C@H](C(=O)N[C@H](C(=O)O)c4cc(O)cc(O)c4-c4cc3ccc4O)[C@H](O)c3ccc(c(Cl)c3)Oc3cc2cc(c3O[C@@H]2O[C@H](CO)[C@@H](O)[C@H](O)[C@H]2O[C@H]2C[C@](C)(N)[C@H](O)[C@H](C)O2)Oc2ccc(cc2Cl)[C@H]1O` [VANCOMYCIN], the MIC was 0.25 µg/mL (≈ 0.173 µM) in the data set on Staphylococcus aureus [5], 0.13 µg/mL (≈ 0.0897 µM) with Micrococcus luteus and 0.13 µg/mL (≈ 0.0897 µM) with Bacillus subtilis.

What is called MIC is the smallest concentration in the dilution series that meets the test's criterion for growth inhibition. For orientation: IC50 means the concentration needed to halve the response being measured.
